pIC50: −log10 of the molar value. Each block holds one molecule with its values, some of them ahead of it.
Key:
[1] = tested on: guinea pig tracheal spiral preparations; assay: Bronchodilation in vitro; guinea pig tracheal spiral preparations; format: cell-based; conditions: Cavia porcellus; for Emax: guinea pig tracheal spirals, relaxation relative to 10^-3 M isoprenaline, read-out: Intrinsic Activity; for pIC50: relaxation as percentage of total relaxation by 10^-3 M isoprenaline, cumulative dosing 10^-8 - 2×10^-5 M, 37° C
Method: (a) Bronchodilation in vitro; guinea pig tracheal spiral preparations
Male guinea pigs (300-600 g) were stunned by a blow to the head and bled from the carotid artery. The trachea was exposed, dissected free of connective tissue, and transferred to oxygenated krebs solution at 37° C. Next, spirals (2 per trachea) were prepared by cutting the whole trachea spirally along its longitudinal axis and then dividing this spiral lengthwise. Each preparation was mounted, using silk thread, in a 10 ml organ bath filled with krebs solution at 37° C. and bubbled with 5% CO2 with O2. The resting tension of the preparations was set at 2 g and changes in muscle tension were monitored isometrically by means of a UFI (2 oz) force and displacement transducer (Ormed Ltd) connected to a Linseis pen recorder. All preparations were allowed to equilibrate for 60 minutes. During this equilibration period the preparations were washed by upward displacement at 15 minute intervals and, if necessary, the resting tension was readjusted to 2 g using a mechanical micromanipulator system.
Once a steady resting tension had been obtained, the preparations were dosed cumulatively with the test compound (10^-8 -2×10^-5 M), and finally a maximum relaxation achieved by addition of 10^-3 M isoprenaline. The fall in tension evoked by the test compound was expressed as a percentage of the total relaxation evoked in the presence of 10^-3 M isoprenaline. Appropriate concentration-relaxation curves were then constructed and values for potency (IC50) were obtained.
The composition of Krebs solution is: sodium chloride 118.07 mM, sodium hydrogen carbonate 26.19 mM, potassium chloride 4.68 mM, potassium orthophosphate 1.18 mM, magnesium sulphate septahydrate 1.8 mM and calcium chloride 2.52 mM; pH ca. 7.45.

[2] = tested on: Spontaneously hypertensive rats; assay: Blood Pressure Lowering Activity (systolic blood pressure, tail cuff method); format: in vivo, rat
Method: Blood Pressure Lowering Activity
Systolic blood pressures were recorded by a modification of the tail cuff method described by I. M. Claxton, M. G. Palfreyman, R. H. Poyser, R. L. Whiting, European Journal of Pharmacology, 37, 179 (1976). A W+W BP recorder, model 8005 was used to display pulses. Prior to all measurements rats were placed in a heated environment (33.5°±0.5° C.) before transfer to a restraining cage. Each determination of blood pressure was the mean of at least 6 readings. Spontaneously hypertensive rats (ages 12-18 weeks) with systolic blood pressures>180 mmHg were considered hypertensive.

- pIC50 [1]: 6.27
Compound: CC1(C)Oc2ccc(C(F)(F)F)cc2[C@@H](n2ccccc2=O)[C@@H]1O (relative stereo) [Example 4, Trans-3,4-Dihydro-2,2-dimethyl-6-trifluoromethyl-4-(2(1H)-pyridon-1-yl)-2H-1-benzopyran-3-ol]
- Emax [1]: 95%
- % Change in Systolic B.P. ([2]; 0.3 mg/kg p.o., 2 h post dose): -42 ± 3%
- % Change in Systolic B.P. ([2]; 0.3 mg/kg p.o., 4 h post dose): -32 ± 5%
- % Change in Systolic B.P. ([2]; 0.3 mg/kg p.o., 6 h post dose): -34%

- pIC50 [1]: 7.28
Compound: CC1(C)C=C(n2ccccc2=O)c2cc(C(F)(F)F)ccc2O1 [Example 5, 2,2-Dimethyl-6-trifluoromethyl-4-(2(1H)-pyridon-1-yl)-2H-1-benzopyran]
- Emax [1]: 99%
- % Change in Systolic B.P. ([2]; 0.03 mg/kg p.o., 1 h post dose): -15 ± 3%
- % Change in Systolic B.P. ([2]; 0.03 mg/kg p.o., 2 h post dose): -20 ± 1%
- % Change in Systolic B.P. ([2]; 0.03 mg/kg p.o., 4 h post dose): -25 ± 3%
- % Change in Systolic B.P. ([2]; 0.03 mg/kg p.o., 6 h post dose): -28 ± 1%

- pIC50 [1]: 5.26
Compound: CC1(C)Oc2ccncc2[C@@H](n2ccccc2=O)[C@@H]1O (relative stereo) [Example 6]
- Emax [1]: 81%

- pIC50 [1]: 4.96
Compound: CC1(C)C=C(n2ccc(=O)cc2)c2cc(C#N)ccc2O1 [Example 3, 6-Cyano-2,2-dimethyl-4-(4(1H)-pyridon-1-yl)-2H-1-benzopyran]
- Emax [1]: 75%
- % Change in Systolic B.P. ([2]; 3 mg/kg p.o., 1 h post dose): -46 ± 7%
- % Change in Systolic B.P. ([2]; 3 mg/kg p.o., 2 h post dose): -49 ± 3%
- % Change in Systolic B.P. ([2]; 3 mg/kg p.o., 4 h post dose): -63%
- % Change in Systolic B.P. ([2]; 3 mg/kg p.o., 6 h post dose): -57 ± 3%

- pIC50 [1]: 5.62
Compound: CC1(C)C=C(n2ccccc2=O)c2cnccc2O1 [Example 7, 2,2-Dimethyl-4-(2(1H)-pyridon-1-yl)-2H-pyrano[3,2-c]pyridine]
- Emax [1]: 93%

- pIC50 [1]: 6.10
Compound: CC1(C)Oc2ccc(C#N)cc2[C@@H](n2ccccc2=O)[C@@H]1O (relative stereo) [Example 1, Trans-6-Cyano-3,4-dihydro-2,2-dimethyl-4-(2(1H)-pyridon-1-yl)-2H-1-benzopyran-3-ol]
- Emax [1]: 96%
- % Change in Systolic B.P. ([2]; 0.1 mg/kg p.o., 1 h post dose): -12 ± 5%
- % Change in Systolic B.P. ([2]; 0.1 mg/kg p.o., 2 h post dose): -20 ± 2%
- % Change in Systolic B.P. ([2]; 0.1 mg/kg p.o., 4 h post dose): -21 ± 3%
- % Change in Systolic B.P. ([2]; 0.1 mg/kg p.o., 6 h post dose): -23 ± 5%

- pIC50 [1]: 7.00
Compound: CC1(C)C=C(n2ccccc2=O)c2cc(C#N)ccc2O1 [Example 2, 6-Cyano-2,2-dimethyl-4-(2(1H)-pyridon-1-yl)-2H-1-benzopyran]
- Emax [1]: 92%
- % Change in Systolic B.P. ([2]; 0.03 mg/kg p.o., 2 h post dose): -41 ± 3%
- % Change in Systolic B.P. ([2]; 0.03 mg/kg p.o., 4 h post dose): -38%
- % Change in Systolic B.P. ([2]; 0.03 mg/kg p.o., 6 h post dose): -32 ± 3%
